According to ChEMBL document CHEMBL1125302, “Prodrugs of nitroxyl as inhibitors of aldehyde dehydrogenase” (J Med Chem, 1992):
Calls of active or inactive are those of the source. No cut-off for these calls is given here.

How the values were obtained:
[1] = Inhibitory activity against porcine […] dehydrogenase; Active; conditions: Sus scrofa
[2] = In vitro inhibitory activity against yeast […] dehydrogenase; Active; conditions: Saccharomyces cerevisiae

SMILES | Activity [1] | Activity [2]
CC(=O)ON(C(=O)OC(C)(C)C)S(=O)(=O)c1ccccc1 | Active | Active
CC(C)(C)OC(=O)N(OC(=O)c1ccccc1)S(=O)(=O)c1ccccc1 | Active | Active
N#CN(OC(=O)c1ccccc1)C(=O)c1ccccc1 | Active | 
